Data reported in ChEMBL document CHEMBL6127034, “Design, synthesis and biological evaluation of a novel PAK1 degrader for the treatment of triple negative breast cancer” (Bioorg Med Chem, 2024).
Active and inactive are the calls of the source. The rule behind the calls is not given here.

What was measured:
MDA-MB-231 [1] = experiment: Inhibition of cell migration in human MDA-MB-231 cells upto 10 uM incubated for 24 hrs by transwell assay; assay type: functional, cell-based
MDA-MB-231 [2] = experiment: Inhibition of cell migration in human MDA-MB-231 cells assessed as decrease in MMP-2 level by Western blot analysis; assay type: functional, cell-based; conditions: time <= 48.0 hrs, TDE = time-dependent effect

## Cc1ncsc1-c1ccc([C@H](C)NC(=O)[C@@H]2C[C@@H](O)CN2C(=O)[C@@H](NC(=O)CCc2cn(CCCCCCCn3c(=O)c(-c4ccc(Cl)cc4Cl)cc4cnc(NC5CC5)nc43)nn2)C(C)(C)C)cc1
MDA-MB-231 [1]
  inhibition: Active
MDA-MB-231 [2]
  inhibition: Tde
